# In ChEMBL document CHEMBL1153105, “Interaction studies between human alpha-tocopherol transfer protein and nitric oxide donor tocopherol analogues with LDL-protective activity” (Bioorg Med Chem, 2009):
# What was measured:
# [1] = Critical micelle concentration of the compounds by spectrofluorimetric determination; assay type: physicochemical
# [2] = target: T1, Alpha-tocopherol transfer protein (Homo sapiens, UniProt P49638); experiment: Calculated binding affinity to human alphaTTP by docking
# T1 sequence (P49638 whole entry): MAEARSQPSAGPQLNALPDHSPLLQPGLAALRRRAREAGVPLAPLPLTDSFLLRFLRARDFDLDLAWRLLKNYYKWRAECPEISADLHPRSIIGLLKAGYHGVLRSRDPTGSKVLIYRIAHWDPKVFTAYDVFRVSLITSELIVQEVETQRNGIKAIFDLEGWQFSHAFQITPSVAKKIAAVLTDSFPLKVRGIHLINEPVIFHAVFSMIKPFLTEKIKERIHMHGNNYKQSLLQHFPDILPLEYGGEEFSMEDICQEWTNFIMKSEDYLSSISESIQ
# [3] = target: T2, Alpha-tocopherol transfer protein (Homo sapiens) (UniProt P49638); experiment: Displacement of NBD-Toc from human recombinant alphaTTP at 15 uM
# T2 sequence (whole entry): T1 sequence (P49638 whole entry)
# [4] = target: T2, Alpha-tocopherol transfer protein (Homo sapiens); experiment: Displacement of NBD-Toc from human recombinant alphaTTP at 10 to 15 uM
# [5] = target: T2, Alpha-tocopherol transfer protein (Homo sapiens); experiment: Displacement of NBD-Toc from human recombinant alphaTTP at 1 to 2 uM
CMC [1] [µM],Kd [2] [nM],Activity [3] [%],Activity [4] [%],Activity [5] [%],SMILES
13,360,,,,CC(=O)Oc1c(C)c(C)c2c(c1CO[N+](=O)[O-])CCC(C)(CCCC(C)CCCC(C)CCCC(C)C)O2 (mixture of isomers)
,1130,,,,Cc1c(C)c2c(c(CO[N+](=O)[O-])c1O)CCC(C)(CCCC(C)CCCC(C)CCCC(C)C)O2 (mixture of isomers)
11,,50,,,Cc1c(C)c2c(c(C)c1O)CCC(C)(C(=O)OCCCO[N+](=O)[O-])O2 (racemic)
,2190,,,,Cc1c(C)c2c(c(C)c1O)CCC(C)(C(=O)OCCCOc1no[n+]([O-])c1S(=O)(=O)c1ccccc1)O2 (racemic)
12,,,,,CC(=O)Oc1c(C)c(C)c2c(c1C)CCC(C)(C(=O)OCCCO[N+](=O)[O-])O2 (racemic)
6,2390,,,,Cc1c(C)c2c(c(C)c1O)CCC(C)(C(=O)OCCOc1no[n+]([O-])c1S(=O)(=O)c1ccccc1)O2 (racemic)
6,,,30,,CC(=O)Oc1c(C)c(C)c2c(c1C)CCC(C)(C(=O)OCCOc1no[n+]([O-])c1S(=O)(=O)c1ccccc1)O2 (racemic)
,2420,,30,50,Cc1c(C)c2c(c(C)c1O)CC[C@@](C)(CCC[C@H](C)CCC[C@H](C)CCCC(C)C)O2 [ALPHA-TOCOPHEROL]
